Organism: Rattus norvegicus
Test: DrugMatrix - Regimen: Daily Repeat
Assay type: toxicity, organism-based, Sprague-Dawley
Design: regimen Daily Repeat, gender Male, age 6-8 weeks
Conditions: in vivo, po, route oral GAVAGE, vehicle .5 % CMC; for ABSOLUTE BASOPHIL / ABSOLUTE EOSINOPHIL / ABSOLUTE LYMPHOCYTE / ABSOLUTE MONOCYTE / ABSOLUTE SEGMENTED NEUTROPHIL / BASOPHIL / EOSINOPHIL / ERYTHROCYTE COUNT / HEMATOCRIT / HEMOGLOBIN / LEUKOCYTE COUNT / LYMPHOCYTE / MEAN CORPUSCULAR HEMOGLOBIN / MEAN CORPUSCULAR HEMOGLOBIN CONCENTRATION / MEAN CORPUSCULAR VOLUME / MONOCYTE / NEUTROPHIL / NUCLEATED RED BLOOD CELLS / PLATELET COUNT: tissue Blood; for ALANINE AMINOTRANSFERASE / ALBUMIN / ALKALINE PHOSPHATASE / ASPARTATE AMINOTRANSFERASE / BLOOD UREA NITROGEN / CARBON DIOXIDE / CHLORIDE / CHOLESTEROL / CREATINE PHOSPHOKINASE / CREATININE / GLUCOSE / LACTATE DEHYDROGENASE / LIPASE / PHOSPHORUS / POTASSIUM / SODIUM / TOTAL BILIRUBIN / TOTAL PROTEIN / URIC ACID: tissue Plasma
[1] = 0 mg/kg, 72 h, dose level Control, time 3 day
[2] = 0 mg/kg, 120 h, dose level Control, time 5 day
[3] = 4.5 mg/kg, 72 h, dose level Low, time 3 day

CC(C(=O)O)c1ccc(-c2ccccc2)c(F)c1 (centres undefined) [FLURBIPROFEN]
ABSOLUTE BASOPHIL [1]: 0 CELLS/uL | ABSOLUTE EOSINOPHIL [1]: 222.83 CELLS/uL | ABSOLUTE LYMPHOCYTE [1]: 14453 CELLS/uL | ABSOLUTE MONOCYTE [1]: 0 CELLS/uL | ABSOLUTE SEGMENTED NEUTROPHIL [1]: 1490.83 CELLS/uL | BASOPHIL [1]: 0% | EOSINOPHIL [1]: 1.33% | ERYTHROCYTE COUNT [1]: 5.76 x10E6/uL | HEMATOCRIT [1]: 36.52% | HEMOGLOBIN [1]: 13.45 G/DL | LEUKOCYTE COUNT [1]: 16.17 x10E3/uL | LYMPHOCYTE [1]: 89.33% | MEAN CORPUSCULAR HEMOGLOBIN [1]: 23.37 pg | MEAN CORPUSCULAR HEMOGLOBIN CONCENTRATION [1]: 36.85 G/DL | MEAN CORPUSCULAR VOLUME [1]: 63.47 fL | MONOCYTE [1]: 0% | NEUTROPHIL [1]: 9.33% | NUCLEATED RED BLOOD CELLS [1]: 0 /100WBC | PLATELET COUNT [1]: 1239.5 x10E3/uL | ALANINE AMINOTRANSFERASE [1]: 43.83 u/L | ALBUMIN [1]: 4.27 G/DL | ALKALINE PHOSPHATASE [1]: 398.83 u/L | ASPARTATE AMINOTRANSFERASE [1]: 81.17 u/L | BLOOD UREA NITROGEN [1]: 17.67 mg/dL | CARBON DIOXIDE [1]: 27.5 mmol/L | CHLORIDE [1]: 99.17 MEQ/L | CHOLESTEROL [1]: 74 mg/dL | CREATINE PHOSPHOKINASE [1]: 331.5 u/L | CREATININE [1]: 0.2 mg/dL | GLUCOSE [1]: 171.33 mg/dL | LACTATE DEHYDROGENASE [1]: 241.67 u/L | LIPASE [1]: 9.5 u/L | PHOSPHORUS [1]: 12.25 mg/dL | POTASSIUM [1]: 6.33 MEQ/L | SODIUM [1]: 141.28 MEQ/L | TOTAL BILIRUBIN [1]: 0.15 mg/dL | TOTAL PROTEIN [1]: 5.98 G/DL | URIC ACID [1]: 1.63 mg/dL | ABSOLUTE BASOPHIL [2]: 0 CELLS/uL | ABSOLUTE EOSINOPHIL [2]: 148.67 CELLS/uL | ABSOLUTE LYMPHOCYTE [2]: 16020.5 CELLS/uL | ABSOLUTE MONOCYTE [2]: 29.17 CELLS/uL | ABSOLUTE SEGMENTED NEUTROPHIL [2]: 1468.33 CELLS/uL | BASOPHIL [2]: 0% | EOSINOPHIL [2]: 1% | ERYTHROCYTE COUNT [2]: 5.78 x10E6/uL | HEMATOCRIT [2]: 35.77% | HEMOGLOBIN [2]: 13.4 G/DL | LEUKOCYTE COUNT [2]: 17.67 x10E3/uL | LYMPHOCYTE [2]: 90.5% | MEAN CORPUSCULAR HEMOGLOBIN [2]: 23.22 pg | MEAN CORPUSCULAR HEMOGLOBIN CONCENTRATION [2]: 37.47 G/DL | MEAN CORPUSCULAR VOLUME [2]: 61.92 fL | MONOCYTE [2]: 0.17% | NEUTROPHIL [2]: 8.33% | NUCLEATED RED BLOOD CELLS [2]: 0.17 /100WBC | PLATELET COUNT [2]: 1255.5 x10E3/uL | ALANINE AMINOTRANSFERASE [2]: 46.5 u/L | ALBUMIN [2]: 4.38 G/DL | ALKALINE PHOSPHATASE [2]: 336 u/L | ASPARTATE AMINOTRANSFERASE [2]: 76.5 u/L | BLOOD UREA NITROGEN [2]: 20 mg/dL | CARBON DIOXIDE [2]: 27.5 mmol/L | CHLORIDE [2]: 101 MEQ/L | CHOLESTEROL [2]: 71.33 mg/dL | CREATINE PHOSPHOKINASE [2]: 231.83 u/L | CREATININE [2]: 0.37 mg/dL | GLUCOSE [2]: 168.83 mg/dL | LACTATE DEHYDROGENASE [2]: 174 u/L | LIPASE [2]: 8.67 u/L | PHOSPHORUS [2]: 11.48 mg/dL | POTASSIUM [2]: 6.82 MEQ/L | SODIUM [2]: 143.8 MEQ/L | TOTAL BILIRUBIN [2]: 0.2 mg/dL | TOTAL PROTEIN [2]: 5.98 G/DL | URIC ACID [2]: 1.83 mg/dL | ABSOLUTE BASOPHIL [3]: 0 CELLS/uL | ABSOLUTE EOSINOPHIL [3]: 292.33 CELLS/uL | ABSOLUTE LYMPHOCYTE [3]: 14732.33 CELLS/uL | ABSOLUTE MONOCYTE [3]: 0 CELLS/uL | ABSOLUTE SEGMENTED NEUTROPHIL [3]: 2542 CELLS/uL | BASOPHIL [3]: 0% | EOSINOPHIL [3]: 1.67% | ERYTHROCYTE COUNT [3]: 5.5 x10E6/uL | HEMATOCRIT [3]: 34.7% | HEMOGLOBIN [3]: 12.83 G/DL | LEUKOCYTE COUNT [3]: 17.57 x10E3/uL | LYMPHOCYTE [3]: 83.67% | MEAN CORPUSCULAR HEMOGLOBIN [3]: 23.33 pg | MEAN CORPUSCULAR HEMOGLOBIN CONCENTRATION [3]: 36.97 G/DL | MEAN CORPUSCULAR VOLUME [3]: 63.03 fL | MONOCYTE [3]: 0% | NEUTROPHIL [3]: 14.67% | NUCLEATED RED BLOOD CELLS [3]: 0 /100WBC | PLATELET COUNT [3]: 1184.67 x10E3/uL | ALANINE AMINOTRANSFERASE [3]: 49.67 u/L | ALBUMIN [3]: 3.57 G/DL | ALKALINE PHOSPHATASE [3]: 319 u/L | ASPARTATE AMINOTRANSFERASE [3]: 69.33 u/L | BLOOD UREA NITROGEN [3]: 13.33 mg/dL | CARBON DIOXIDE [3]: 30 mmol/L | CHLORIDE [3]: 99.67 MEQ/L | CHOLESTEROL [3]: 69 mg/dL | CREATINE PHOSPHOKINASE [3]: 219.67 u/L | CREATININE [3]: 0.25 mg/dL | GLUCOSE [3]: 168.33 mg/dL | LACTATE DEHYDROGENASE [3]: 123.67 u/L | LIPASE [3]: 8.33 u/L | PHOSPHORUS [3]: 12.13 mg/dL | POTASSIUM [3]: 6.57 MEQ/L | SODIUM [3]: 143.2 MEQ/L | TOTAL BILIRUBIN [3]: 0.23 mg/dL | TOTAL PROTEIN [3]: 5.37 G/DL | URIC ACID [3]: 1.77 mg/dL

From ChEMBL document CHEMBL3885881, “DrugMatrix”
